From patent USRE48687E1, “Pyridinylaminopyrimidine derivatives, preparation process and use thereof” (Shanghai Allist Pharmaceuticals Co., Ltd., priority 2014, dated 2021)

Experiments:
Format in all cases: cell-based
Conditions in all cases: SRB staining
[1] = tested on: human lung cancer cell (HCC827, EGFR Exon 19 deletion activating mutation); assay: Proliferation inhibition (SRB) on human lung cancer cell HCC827
Excerpt: (§1) The pharmacodynamic action of the compound of the present invention in terms of inhibiting the proliferation of cancer cells may be assayed by conventional methods. […] Inhibition ratio (%)=[(blank control OD−inhibitor OD)/blank control OD]×100%
(§2) Blank control OD: the OD value of the well of normally growed cells without the action of a drug.
(§3) Inhibitor OD: the OD value of the well of cells with the action of the added compounds to be screened.
(§4) The median inhibitory concentration (IC50) value is obtained by the software GraphPad Prism 5.0 by the 4-parameter logistic curve fit calculation. Each experiment is repeated three times, and the average IC50 value for three experiments is used as the final index for the inhibitory ability.
(§5) Cells in the logarithmic phase were inoculated to 96-well culture plates (cell density: 5000/well, cell suspension: 180 μl/well), and cultured at 37° C. under 5% CO2 for 24 hours. After the culturing, the cells adhered to the well walls. Each of compounds was dissolved in DMSO in advance to formulate a […] stock solution. Upon testing, the stock solution was diluted with complete medium to 10 times the target concentration in another 96-cell plate. And then the compound was added at 20 μl/cell in the 96-well plate in which the cells were inoculated, i.e. the target concentration could be reached. The well for each concentration was triplicated, and the blank control was established. Cells continued to be cultured at 37° C. under 5% CO2 for 72 hours. After the termination of culturing, 50 μl pre-cooled (4° C.) 50% trichloroacetic acid, i.e., TCA was added to each of wells (final concentration=10%), and was placed at 4° C. for 1 hour to fix the cells. The resulting matter was washed with purified water for at least 5 times, and dried naturally in air or at 60° C. in an oven. 4 mg/ml Sulforhodamine B (SRB) solution prepared by 1% glacial acetic acid/purified water was added at 100 μl/well to each well so as to stain for 1 hour at room temperature. The supernatant was discarded. The residue was washed with 1% acetic acid for at least 5 times to remove the non-specifically binding, and dried for use. To each well was added 150 μl of 10 mM Tris-HCl solution for dissolving the contents therein.

[2] = tested on: human lung cancer cell (H1975, EGFR L858R/T790M resistant mutation); assay: Proliferation inhibition (SRB) on human lung cancer cell H1975
Excerpt: as §1, §2, §3, §4, §5

[3] = tested on: human skin cancer cell (A431, wild-type EGFR); assay: Proliferation inhibition (SRB) on human skin cancer cell A431
Excerpt: as §1, §2, §3, §4, §5

SMILES	IC50 ([1]; Homo sapiens, HCC827, 72 h) [nM]	IC50 ([2]; Homo sapiens, NCI-H1975, 72 h) [nM]	IC50 ([3]; Homo sapiens, A-431, 72 h) [nM]	further results
C=CC(=O)Nc1cc(Nc2ncc(Cl)c(-c3cn(C)c4cc(F)c(F)cc34)n2)c(OC(C)C)nc1N(C)CCN(C)C [Example 17 compound, N-{2-{[2-(dimethylamino)ethyl](methyl)amino}-6-isopropyloxy-5-{5-chloro-[4-(1-methyl-5,6-difluoro-1H-indol-3-yl)pyrimidin-2-yl]amino}pyridin-3-yl}acrylamide methanesulfonate]				IC50 ([1]; 72 hours, methanesulfonate): 5.56 nM; IC50 ([2]; 72 hours, methanesulfonate): 7.63 nM
C=CC(=O)Nc1cc(Nc2ncc(F)c(-c3cn(C)c4ccccc34)n2)c(OCC(F)(F)F)nc1N(C)CCN(C)C [Example 14 compound, N-{2-{[2-(dimethylamino)ethyl](methyl)amino}-6-(2,2,2-trifluoroethoxyl)-5-{5-fluoro-[4-(1-methyl-1H-indol-3-yl)pyrimidin-2-yl]amino}pyridin-3-yl}acrylamide]	0.77	5.17	242	
C=CC(=O)Nc1cc(Nc2nccc(-c3cn(C)c4ccc(F)cc34)n2)c(OCC(F)(F)F)nc1N(C)CCN(C)C [Example 15 compound, N-{2-{[2-(dimethylamino)ethyl](methyl)amino}-6-(2,2,2-trifluoroethoxyl)-5-{[4-(1-methyl-5-fluoro-1H-indol-3-yl)pyrimidin-2-yl]amino}pyridin-3-yl}acrylamide]	0.69	6.28	337	
C=CC(=O)Nc1cc(Nc2ncc(Cl)c(-c3cnc(OC)nc3)n2)c(OC(C)C)nc1N(C)CCN(C)C [Example 22 compound, N-{2-{[2-(dimethylamino)ethyl](methyl)amino}-6-isopropyloxy-5-{[5-chloro-2′-methoxy-(4,5′-bipyrimidine)-2-yl]amino}pyridin-3-yl}acrylamide]	33.3	38	2760	
C=CC(=O)Nc1cc(Nc2ncc(Cl)c(-c3cnn(C)c3)n2)c(OC(C)C)nc1N(C)CCN(C)C [Example 21 compound, N-{2-{[2-(dimethylamino)ethyl](methyl)amino}-6-isopropyloxy-5-{[5-chloro-4-(1-methyl-1H-pyrazol-4-yl)pyrimidin-2-yl]amino}pyridin-3-yl}acrylamide]	142	18.6	370	
C=CC(=O)Nc1cc(Nc2ncc(Cl)c(-c3cn(C)c4ccccc34)n2)c(OCC(F)(F)F)nc1N(C)CCN(C)C [Example 4 compound, N-{2-{[2-(dimethylamino)ethyl](methyl)amino}-6-(2,2,2-trifluoroethoxyl)-5-{5-chloro-[4-(1-methyl-1H-indol-3-yl)pyrimidin-2-yl]amino}pyridin-3-yl}acrylamide]	1.92	6.15	164	
C=CC(=O)Nc1cc(Nc2nccc(-c3cn(C)c4ccccc34)n2)c(OC(C)C)nc1N(C)CCN(C)C [Example 2 compound, N-{2-{[2-(dimethylamino)ethyl](methyl)amino}-6-isopropyloxy-5-{[4-(1-methyl-1H-indol-3-yl)pyrimidin-2-yl]amino}pyridin-3-yl}acrylamide]	4.22	5.54	196	
C=CC(=O)Nc1cc(Nc2nccc(-c3cn(C)c4cc(F)c(F)cc34)n2)c(OC(C)C)nc1N(C)CCN(C)C [Example 18 compound, N-{2-{[2-(dimethylamino)ethyl](methyl)amino}-6-isopropyloxy-5-{[4-(1-methyl-5,6-difluoro-1H-indol-3-yl)pyrimidin-2-yl]amino}pyridin-3-yl}acrylamide methanesulfonate]				IC50 ([1]; 72 hours, methanesulfonate): 2.24 nM; IC50 ([2]; 72 hours, methanesulfonate): 5.07 nM; IC50 ([3]; 72 hours, methanesulfonate): 341 nM
C=CC(=O)Nc1cc(Nc2ncc(Cl)c(-c3cn(C)c4ccccc34)n2)c(OC(C)C)nc1N(C)CCN(C)C [Example 1 compound, N-{2-{[2-(dimethylamino)ethyl](methyl)amino}-6-isopropyloxy-5-{5-chloro-[4-(1-methyl-1H-indol-3-yl)pyrimidin-2-yl]amino}pyridin-3-yl}acrylamide]				IC50 ([1]; 72 hours): 2.15 nM; IC50 ([2]; 72 hours): 5.64 nM; IC50 ([3]; 72 hours): 140 nM
C=CC(=O)Nc1cc(Nc2nccc(-c3cn(C)c4ccccc34)n2)c(OC)cc1N(C)CCN(C)C [AZD9291, reference compound]				IC50 ([1]; Homo sapiens, 72 hours): 3.8 nM; IC50 ([3]; Homo sapiens, A-431, 72 hours): 70.4 nM
C=CC(=O)Nc1cc(Nc2nccc(-c3cn(C)c4cc(F)c(F)cc34)n2)c(OC(C)C)nc1N(C)CCN(C)C [Example 6 compound, N-{2-{[2-(dimethylamino)ethyl](methyl)amino}-6-isopropyloxy-5-{[4-(1-methyl-5,6-difluoro-1H-indol-3-yl)pyrimidin-2-yl]amino}pyridin-3-yl}acrylamide]	2.36	5.2	338	

Second part, led by results:

IC50 ([1]; Homo sapiens, HCC827, 72 h) [nM]	IC50 ([2]; Homo sapiens, NCI-H1975, 72 h) [nM]	IC50 ([3]; Homo sapiens, A-431, 72 h) [nM]	SMILES	further results
5.98	8.4	375	C=CC(=O)Nc1cc(Nc2ncc(Cl)c(-c3cn(C)c4cc(F)c(F)cc34)n2)c(OC(C)C)nc1N(C)CCN(C)C [Example 8 compound, N-{2-{[2-(dimethylamino)ethyl](methyl)amino}-6-isopropyloxy-5-{5-chloro-[4-(1-methyl-5,6-difluoro-1H-indol-3-yl)pyrimidin-2-yl]amino}pyridin-3-yl}acrylamide]	
1.45	5.43	273	C=CC(=O)Nc1cc(Nc2ncc(Cl)c(-c3cn(C)c4ccccc34)n2)c(OC(C)C)nc1N(C)CCN(C)C [Example 16 compound, N-{2-{[2-(dimethylamino)ethyl](methyl)amino}-6-isopropyloxy-5-{5-chloro-[4-(1-methyl-1H-indol-3-yl)pyrimidin-2-yl]amino}pyridin-3-yl}acrylamide methanesulfonate]	
2.62	2.56	209	C=CC(=O)Nc1cc(Nc2ncc(Cl)c(-c3cn(C)c4ncccc34)n2)c(OC(C)C)nc1N(C)CCN(C)C [Example 19 compound, N-{2-{[2-(dimethylamino)ethyl](methyl)amino}-6-isopropyloxy-5-{[5-chloro-4-(1-methyl-1H-pyrrolo[2,3-b]pyridin-3-yl)pyrimidin-2-yl]amino}pyridin-3-yl}acrylamide]	
2.62	5.33	209	C=CC(=O)Nc1cc(Nc2nccc(-c3cn(C)c4cc(F)ccc34)n2)c(OC(C)C)nc1N(C)CCN(C)C [Example 13 compound, N-{2-{[2-(dimethylamino)ethyl](methyl)amino}-6-isopropyloxy-5-{[4-(1-methyl-6-fluoro-1H-indol-3-yl)pyrimidin-2-yl]amino}pyridin-3-yl}acrylamide]	
1.17	12.6	697	C=CC(=O)Nc1cc(Nc2ncc(Cl)c(-c3cn(C)c4ccc(F)cc34)n2)c(OC(C)C)nc1N(C)CCN(C)C [Example 9 compound, N-{2-{[2-(dimethylamino)ethyl](methyl)amino}-6-isopropyloxy-5-{5-chloro-[4-(1-methyl-5-fluoro-1H-indol-3-yl)pyrimidin-2-yl]amino}pyridin-3-yl}acrylamide]	
0.96	9.01	339	C=CC(=O)Nc1cc(Nc2ncc(F)c(-c3cn(C)c4cc(F)c(F)cc34)n2)c(OC(C)C)nc1N(C)CCN(C)C [Example 12 compound, N-{2-{[2-(dimethylamino)ethyl](methyl)amino}-6-isopropyloxy-5-{5-fluoro-[4-(1-methyl-5,6-difluoro-1H-indol-3-yl)pyrimidin-2-yl]amino}pyridin-3-yl}acrylamide]	
2.62	5.32	209	C=CC(=O)Nc1cc(Nc2ncc(F)c(-c3cn(C)c4ccc(F)cc34)n2)c(OC(C)C)nc1N(C)CCN(C)C [Example 10 compound, N-{2-{[2-(dimethylamino)ethyl](methyl)amino}-6-isopropyloxy-5-{5-fluoro-[4-(1-methyl-5-fluoro-1H-indol-3-yl)pyrimidin-2-yl]amino}pyridin-3-yl}acrylamide]	
2.23	7.22	210	C=CC(=O)Nc1cc(Nc2ncc(F)c(-c3cn(C)c4ccccc34)n2)c(OC(C)C)nc1N(C)CCN(C)C [Example 11 compound, N-{2-{[2-(dimethylamino)ethyl](methyl)amino}-6-isopropyloxy-5-{5-fluoro-[4-(1-methyl-1H-indol-3-yl)pyrimidin-2-yl]amino}pyridin-3-yl}acrylamide]	
